The values below come from patent US8378117B2 (priority 2005, dated 2013).

For test [1], the target named is T1, CB2 receptor (Homo sapiens, UniProt P34972).
T1 construct: expressed in transfected cells
Kind of test: Binding assay for CB2 agonists or inverse agonists (SK-N-MC membranes, [3H]-CP-55,940). The settings on record: for IC50: calculated by linear regression from percent inhibition at various test concentrations, read-out: Cannabinoid CB2 Receptor Binding IC50; for inhibition at 1 µM: test concentration 1 μM (footnote 1). As for the experimental part: (§1) The human CB1 and CB2 receptors were stably expressed in SK-N-MC cells transfected with pcDNA3 CB-1 (human) or pcDNA3 CB-2 (human). The cells were grown in T-180 cell culture flasks under standard cell culture conditions at 37° C. in a 5% CO2 atmosphere. The cells were harvested by trysinization and homogenized in a homogenization buffer (10 mM Tris, 0.2 mM MgCl2, 5 mM KCl, with protease inhibitors aprotinin, leupeptin, pepstatin A and bacitracin) and centrifuged (2000 g). The supernatant was then centrifuged in 2M sucrose (31,300 g) to produce a semi-purified membrane pellet. The pellet was resuspended in homogenization and stored at −80° C.
On the day of the assay, the pellet was thawed on ice and diluted in assay buffer (50 mM Tris-HCl, 5 mM MgCl2, 2.5 mM EDTA, 0.5 mg/mL fatty acid free bovine serum aldumin, pH 7.5). […] The plate was covered and incubated for 90 minutes at 30° C. The contents were then aspirated onto a Packard Unifilter GF/C filter bottom plate prewet with 0.5% polyethyleneimine. The wells of the polypropylene plate were rinsed and aspirated seven times with a 0.9% saline-0.5% Tween 20 solution. The Unifilter plate was dried, a scintillation cocktail was added to each well and the counts representing binding were quantitated in a TopCount scintillation counter.
(§2) For compounds tested, an IC50 binding value was obtained from percent inhibition studies in which various test concentrations were used. The binding value was calculated by linear regression.

Test [2] deals with T2, CB1 receptor (Homo sapiens, UniProt P21554).
T2 construct: expressed in transfected cells
T2 sequence (P21554 whole entry): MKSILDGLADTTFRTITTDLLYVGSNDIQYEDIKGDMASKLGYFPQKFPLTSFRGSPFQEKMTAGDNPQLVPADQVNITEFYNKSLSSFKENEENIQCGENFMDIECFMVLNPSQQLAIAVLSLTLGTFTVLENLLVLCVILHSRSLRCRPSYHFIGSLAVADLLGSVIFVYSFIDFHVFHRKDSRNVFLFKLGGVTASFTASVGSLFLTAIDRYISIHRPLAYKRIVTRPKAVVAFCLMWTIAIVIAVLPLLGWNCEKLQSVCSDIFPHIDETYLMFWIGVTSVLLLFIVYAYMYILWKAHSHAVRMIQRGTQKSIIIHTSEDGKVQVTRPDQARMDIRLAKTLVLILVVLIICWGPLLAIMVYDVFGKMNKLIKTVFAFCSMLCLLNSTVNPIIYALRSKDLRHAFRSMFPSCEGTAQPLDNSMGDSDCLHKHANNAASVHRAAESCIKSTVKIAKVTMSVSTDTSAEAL
Kind of test: Binding assay for CB1 agonists or inverse agonists (SK-N-MC membranes, [3H]-CP-55,940). The settings on record: for inhibition at 0.2 µM: read-out: CB1 receptor binding percent inhibition, test concentration 0.2 μM (footnote 2). Here is the method:
as §1
On the day of the assay, the pellet was thawed on ice and diluted in assay buffer (50 mM Tris-HCl, 5 mM MgCl2, 2.5 mM EDTA, 0.5 mg/mL fatty acid free bovine serum aldumin, pH 7.5). The diluted membrane pellet was added with buffer, either a test compound or vehicle standard and the radioligand […] ([…]) to the wells of a 96-well polypropylene plate. Non-specific binding was measured in wells containing WIN 55,212 (10 uM). The plate was covered and incubated for 90 minutes at 30° C. The contents were then aspirated onto a Packard Unifilter GF/C filter bottom plate prewet with 0.5% polyethyleneimine. The wells of the polypropylene plate were rinsed and aspirated seven times with a 0.9% saline-0.5% Tween 20 solution. The Unifilter plate was dried, a scintillation cocktail was added to each well and the counts representing binding were quantitated in a TopCount scintillation counter.
as §2

The mark [3] stands for this setting: read-out: CB2 receptor binding percent inhibition.
Where [4] appears, read: Cannabinoid CB1 Receptor Binding IC50, calculated by linear regression from percent inhibition at various test concentrations.
Setting [5] is: read-out: CB1 receptor binding percent inhibition, test concentration 1 μM (footnote 1).
Where [6] appears, read: read-out: CB2 receptor binding percent inhibition, test concentration 0.2 μM (footnote 2).
Where [7] appears, read: test concentration 0.2 μM (footnote 2), read-out: CB2 receptor binding percent inhibition.

Like-named read-outs stand apart in the source and are kept apart here.

T1 sequence (P34972 whole entry): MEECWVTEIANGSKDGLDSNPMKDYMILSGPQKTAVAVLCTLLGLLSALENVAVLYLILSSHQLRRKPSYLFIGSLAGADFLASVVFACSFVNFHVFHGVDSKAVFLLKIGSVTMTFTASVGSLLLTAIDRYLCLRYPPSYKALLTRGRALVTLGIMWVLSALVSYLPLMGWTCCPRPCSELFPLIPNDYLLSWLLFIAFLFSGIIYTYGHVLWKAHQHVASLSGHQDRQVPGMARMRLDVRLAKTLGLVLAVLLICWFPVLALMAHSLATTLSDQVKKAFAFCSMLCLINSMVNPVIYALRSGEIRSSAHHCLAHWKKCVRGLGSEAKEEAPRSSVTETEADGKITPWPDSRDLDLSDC

In the case of `CC12CCC(C1)C(C)(C)[C@H]2NC(=O)c1nn(C2CCCCC2)c2c1CCCCC2Cc1cccc(F)c1` (stereo partly drawn) [Cpd 44, 1-cyclohexyl-8-(3-fluoro-benzyl)-1,4,5,6,7,8-hexahydro-cycloheptapyrazole-3-carboxylic acid [(2S)-1,3,3-trimethyl-bicyclo[2.2.1]hept-2-yl]-amide], the values for the IC50 in test [1] and in test [2] (setting [4]) were 600 nM and 200 nM, respectively. The inhibition at 1 µM is 75% in test [1] (setting [3]) and 82% in test [2] (read-out: CB1 receptor binding percent inhibition).
With `CCOC(=O)[C@@H]1C2CCC(C2)[C@@H]1NC(=O)c1nn(C2CCCCC2)c2c1CCCCC2Cc1cccc(F)c1` (stereo partly drawn) [Cpd 105, (2R,3S)-3-{[1-cyclohexyl-8-(3-fluoro-benzyl)-1,4,5,6,7,8-hexahydro-cycloheptapyrazole-3-carbonyl]-amino}-bicyclo[2.2.1]heptane-2-carboxylic acid ethyl ester], in test [1] (test concentration not stated), the “CB2 receptor binding percent inhibition” value is 82%. The inhibition at 1 µM in test [2] (setting [5]) was 2%.
With `O=C(NCc1ccccc1)c1n[nH]c2c1CCCCC2Cc1ccc(F)cc1` (stereo not shown) [Cpd 129, 8-(4-fluoro-benzyl)-1,4,5,6,7,8-hexahydro-cycloheptapyrazole-3-carboxylic acid benzylamide], the inhibition at 0.25 µM was determined as 86% in test [1] (test concentration 0.25 μM (footnote 8), read-out: CB2 receptor binding percent inhibition) and 100% in test [2] (read-out: CB1 receptor binding percent inhibition, test concentration 0.25 μM (footnote 8)). Besides, the inhibition at 0.002 µM in test [2] (read-out: CB1 receptor binding percent inhibition, test concentration 0.002 μM (footnote 11)) is 92%. Moreover, the inhibition at 0.008 µM in test [2] (read-out: CB1 receptor binding percent inhibition, test concentration 0.008 μM (footnote 12)) came to 90%. Moreover, in test [2] (test concentration not stated), the “CB1 receptor binding percent inhibition” value is on record as 94%.
As for `CCOC(=O)[C@@H]1C2CCC(C2)[C@@H]1NC(=O)c1nn(-c2ccc(Cl)cc2Cl)c2c1CCCCC2Cc1cccc(Cl)c1` (stereo partly drawn) [Cpd 109, (2R,3S)-3-{[8-(3-chloro-benzyl)-1-(2,4-dichloro-phenyl)-1,4,5,6,7,8-hexahydro-cycloheptapyrazole-3-carbonyl]-amino}-bicyclo[2.2.1]heptane-2-carboxylic acid ethyl ester], the “CB2 receptor binding percent inhibition” value in test [1] (test concentration not stated) turned out to be 48%. The half-maximal inhibitory concentration (IC50) (commonly the concentration that inhibits the measured activity by half) in test [2] (calculated by linear regression from percent inhibition at various test concentrations, read-out: Cannabinoid CB1 Receptor Binding IC50) was 300 nM. The inhibition at 0.5 µM in test [2] (read-out: CB1 receptor binding percent inhibition, test concentration 0.5 μM (footnote 10)) came to 60%. Further, the inhibition at 1 µM in test [2] (setting [5]) is 72%.
With `O=C(NC1CCCC1)c1nn(C2CCCCC2)c2c1CCCCC2Cc1ccc(F)cc1` (stereo not shown) [Cpd 59, 1-cyclohexyl-8-(4-fluoro-benzyl)-1,4,5,6,7,8-hexahydro-cycloheptapyrazole-3-carboxylic acid cyclopentylamide], in test [1] (test concentration not stated), the “CB2 receptor binding percent inhibition” value came out at 60%. The inhibition at 1 µM in test [2] (setting [5]) is 27%.
For the compound `O=C(N[C@@H](CO)c1ccccc1)c1nn(-c2ccc(Cl)cc2Cl)c2c1CCCC/C2=C\c1ccc(F)cc1` [Cpd 203, (8E)-1-(2,4-dichloro-phenyl)-8-(4-fluoro-benzylidene)-1,4,5,6,7,8-hexahydro-cycloheptapyrazole-3-carboxylic acid [(1R)-2-hydroxy-1-phenyl-ethyl]-amide], the inhibition at 0.2 µM in test [1] (setting [6]) was determined as 30%; in test [2], 37%.
Consider `O=C(NC1CCC1)c1nn(C2CCCCC2)c2c1CCCCC2Cc1ccccc1Cl` (stereo not shown) [Cpd 23, 8-(2-chloro-benzyl)-1-cyclohexyl-1,4,5,6,7,8-hexahydro-cycloheptapyrazole-3-carboxylic acid cyclobutylamide], for which the “CB2 receptor binding percent inhibition” value in test [1] (test concentration not stated) is 24%. Besides, the inhibition at 1 µM in test [2] (setting [5]) is 0%.
Take `CCOC(=O)[C@H]1C2C=CC(C2)[C@H]1NC(=O)c1nn(C2CCCCC2)c2c1CCCCC2Cc1ccc(F)cc1` (stereo partly drawn) [Cpd 88, (2S,3R)-3-{[1-cyclohexyl-8-(4-fluoro-benzyl)-1,4,5,6,7,8-hexahydro-cycloheptapyrazole-3-carbonyl]-amino}-bicyclo[2.2.1]hept-5-ene-2-carboxylic acid ethyl ester]: the “CB2 receptor binding percent inhibition” value in test [1] (test concentration not stated) amounted to 32%. Further, the inhibition at 1 µM in test [2] (setting [5]) is 2%.
With `O=C(N[C@@H](CO)Cc1ccccc1)c1nn(-c2ccc(Cl)cc2Cl)c2c1CCCCC2Cc1cccc(Cl)c1` (stereo partly drawn) [Cpd 163, 8-(3-chloro-benzyl)-1-(2,4-dichloro-phenyl)-1,4,5,6,7,8-hexahydro-cycloheptapyrazole-3-carboxylic acid [(1R)-1-benzyl-2-hydroxy-ethyl]-amide], the inhibition at 0.2 µM is 7% in test [1] (setting [7]) and 44% in test [2].
Regarding `C[C@H](NC(=O)c1nn(C2CCCCC2)c2c1CCCCC2Cc1ccc(F)cc1)c1ccccc1` (stereo partly drawn) [Cpd 64, 1-cyclohexyl-8-(4-fluoro-benzyl)-1,4,5,6,7,8-hexahydro-cycloheptapyrazole-3-carboxylic acid [(1S)-1-phenyl-ethyl]-amide], in test [1], the IC50 is 600 nM. Besides, the inhibition at 1 µM in test [1] (setting [3]) was found to be 70%; in test [2] (setting [5]) it was 51%.
Consider `O=C(NC1CC1)c1nn(C2CCCCC2)c2c1CCCCC2Cc1ccc(F)cc1` (stereo not shown) [Cpd 56, 1-cyclohexyl-8-(4-fluoro-benzyl)-1,4,5,6,7,8-hexahydro-cycloheptapyrazole-3-carboxylic acid cyclopropylamide], for which, in test [1] (test concentration not stated), the “CB2 receptor binding percent inhibition” value is on record as 42%. Moreover, the inhibition at 1 µM in test [2] (setting [5]) stood at 0%.
Take `C[C@H](NC(=O)c1nn(-c2ccccc2Cl)c2c1CCCC/C2=C\c1ccc(Cl)cc1)c1ccccc1` [Cpd 191, (8E)-8-(4-chloro-benzylidene)-1-(2-chloro-phenyl)-1,4,5,6,7,8-hexahydro-cycloheptapyrazole-3-carboxylic acid [(1S)-1-phenyl-ethyl]-amide]: the results for the inhibition at 0.2 µM in test [1] (setting [6]) and in test [2] were 7% and 47%, respectively.
For `O=C(NN1CCCCC1)c1n[nH]c2c1CCCC/C2=C\c1ccc(Cl)cc1` [Cpd 144, (8E)-8-(4-chloro-benzylidene)-1,4,5,6,7,8-hexahydro-cycloheptapyrazole-3-carboxylic acid piperidin-1-ylamide], the “CB2 receptor binding percent inhibition” value in test [1] (test concentration 0.2 μM (footnote 2)) was “^(2)90%”. In addition, the 50% inhibitory concentration (IC50) in test [2] (setting [4]) is 30 nM. Moreover, the inhibition at 0.2 µM in test [2] was 69%.
Consider `O=C(N[C@@H](CCl)c1ccccc1)c1nn(-c2nccc(C(F)(F)F)n2)c2c1CCCCC2Cc1cccc(Cl)c1` (stereo partly drawn) [Cpd 178, 8-(3-chloro-benzyl)-1-(4-trifluoromethyl-pyrimidin-2-yl)-1,4,5,6,7,8-hexahydro-cycloheptapyrazole-3-carboxylic acid [(1R)-2-chloro-1-phenyl-ethyl]-amide], for which the inhibition at 0.2 µM in test [1] (setting [7]) and in test [2] was 29% each time.
For the compound `CC(NC(=O)c1nn(C2CCCCC2)c2c1CCCCC2Cc1cccc(Cl)c1)C12CC3CC(CC(C3)C1)C2` (stereo not shown) [Cpd 10, 8-(3-chloro-benzyl)-1-cyclohexyl-1,4,5,6,7,8-hexahydro-cycloheptapyrazole-3-carboxylic acid (1-adamantan-1-yl-ethyl)-amide], the “CB2 receptor binding percent inhibition” value in test [1] (test concentration not stated) came out at 8%. Further, the inhibition at 1 µM in test [2] (setting [5]) is 0%.
As for `O=C(NN1CCOCC1)c1nn(-c2cc(Cl)ccc2Cl)c2c1CCCC/C2=C\c1ccc(Cl)cc1` [Cpd 200, (8E)-8-(4-chloro-benzylidene)-1-(2,5-dichloro-phenyl)-1,4,5,6,7,8-hexahydro-cycloheptapyrazole-3-carboxylic acid morpholin-4-ylamide], the values for the inhibition at 0.2 µM in test [1] (setting [7]) and in test [2] were 6% and 15%, respectively.
Take `O=C(NC1CCC1)c1nn(Cc2ccc(Cl)cc2)c2c1CCCCC2Cc1ccc(Cl)cc1` (stereo not shown) [Cpd 30, 1,8-bis-(4-chloro-benzyl)-1,4,5,6,7,8-hexahydro-cycloheptapyrazole-3-carboxylic acid cyclobutylamide]: in test [1], the half-maximal inhibitory concentration (IC50) was 600 nM. The figures for the inhibition at 1 µM in test [1] (setting [3]) and in test [2] (setting [5]) were 65% and 28%, respectively.
`O=C(NC1CCC1)c1nn(C2CCCCC2)c2c1CCCCC2Cc1cccc(Cl)c1` (stereo not shown) [Cpd 36, 8-(3-chloro-benzyl)-1-cyclohexyl-1,4,5,6,7,8-hexahydro-cycloheptapyrazole-3-carboxylic acid cyclobutylamide]: the “CB2 receptor binding percent inhibition” value in test [1] (test concentration not stated) is reported as 0%. Further, in test [2] (setting [5]), the inhibition at 1 µM turned out to be 25%.
